According to US11401253B2, “16-methyl-oxacyclohexadecan-2-one and 16-methyl-azacyclohexadecan-2-one derivatives as antimicrobial agents” (THE UNIVERSITY OF MONTANA, priority 2017, dated 2022):
In brackets after ≈: the same amount, converted by molar mass. Like-named read-outs stand apart in the source and are kept apart here.

Tests used:
[1] = system: Staphylococcus aureus (13709); experiment: Antibiotic testing (MIC), S. aureus 13709; type: cell-based; conditions: growth inhibition ≥90% relative to drug-free controls, read-out: minimum inhibitory concentration, Staphylococcus aureus (13709)
Streptococcus pyogenes = experiment: Antibiotic testing (MIC), Streptococcus pyogenes; type: cell-based; conditions: growth inhibition ≥90%, read-out: minimum inhibitory concentration, Streptococcus pyogenes
Candida glabrata = experiment: Antibiotic testing (MIC), Candida glabrata; type: cell-based; conditions: Nakaseomyces glabratus; growth inhibition ≥90%; read-out: minimum inhibitory concentration, Candida glabrata
Bacillus subtilis = experiment: Antibiotic testing (MIC), Bacillus subtilis; type: cell-based; conditions: growth inhibition ≥90%, read-out: minimum inhibitory concentration, Bacillus subtilis
C. albicans = experiment: Antibiotic testing (MIC), C. albicans; type: cell-based; conditions: Candida albicans; growth inhibition ≥90%; read-out: minimum inhibitory concentration, C. albicans
B. anthracis = experiment: microbe, parasite or virus in culture; type: cell-based; conditions: Bacillus anthracis, read-out: minimum inhibitory concentration, B. anthracis
S. aureus CAIRD116 = experiment: Antibiotic testing, methicillin-resistant S. aureus CAIRD116; type: cell-based; conditions: methicillin-resistant strain
Description: (§1) Both the methyl ester and the diacetate derivatives of BPL 76 slightly less but still very strong activity against the same four MRSA strains (Table 11). The activities of compounds BPL 76 and BPL 81 were compared to several known antibiotics against three methicillin-resistant strains of S. aureus [FIG. 6, comparative data provided by Hartford Hospital, Center for Anti-Infective Research and Development (CAIRD)].

S. aureus CAIRD142 = experiment: Antibiotic testing, methicillin-resistant S. aureus CAIRD142; type: cell-based; conditions: methicillin-resistant strain
Description: as §1

S. aureus CAIRD148 = experiment: Antibiotic testing, methicillin-resistant S. aureus CAIRD148; type: cell-based; conditions: methicillin-resistant strain
Description: as §1

S. aureus (NE277) = experiment: Antibiotic testing, methicillin-resistant S. aureus NE277; type: cell-based
Description: as §1

MMP-3 = molecular target: T1, MMP-3 (Homo sapiens, UniProt P08254); experiment: MMP-3 enzyme inhibition assay; type: biochemical
T1 construct: purchased BioMol
Experimental: The two fungi were also co-cultured under controlled conditions. P. fuscum was grown in pure culture in potato dextrose broth (10×400 mL). After 24 h, an agar cube (8 mm^3) impregnated with P. camembertii/clavigerum mycelium was added to each flask and the resulting co-culture was shaken for 6 more days (200 rpm, room temperature). At time of harvest, methanol (50 mL/flask) was added, the mycelia were removed by gravity filtration and the broth was extracted with chloroform (3×2 L). The chloroform was removed in vacuo to yield 663 mg of crude extract. The crude extract was verified to be active in the MMP-3, caspase-1 and caspase-3 enzyme inhibition assays. Enzyme inhibitory activity was determined using specific BioMol enzyme inhibition assay kits for drug discovery as described in Stierle, A; Stierle, D. The Berkeleylactones, Antibiotic Macrolides from Fungal Coculture. J. Nat. Prod. 80, 4, 1150-1160.

[2] = system: non-replicating persistence Mycobacterium tuberculosis (NRP-TB); experiment: Low oxygen recovery assay (LORA), non-replicating persistence Mtb; type: cell-based; conditions: Mycobacterium tuberculosis, read-out: MIC, LORA
[3] = system: Mycobacterium tuberculosis; experiment: microbe, parasite or virus in culture; conditions: read-out: MIC, MABA
[4] = system: Mycobacterium tuberculosis; conditions: normal (replicating) conditions; known antibiotics
Vero cell = experiment: Cytotoxicity (MTS), Vero cells; type: cell-based, monkey; conditions: Primates, 72 hours exposure
HepG2 = experiment: Cytotoxicity (MTS), HepG2 cells; type: cell-based; conditions: Homo sapiens, 72 hours exposure
J774 = experiment: Cytotoxicity (MTS), J774 cells; type: cell-based, murine; conditions: Mus musculus, 72 hours exposure
[5] = non-replicating persistence conditions, known antibiotics

T1 sequence (P08254 100-477): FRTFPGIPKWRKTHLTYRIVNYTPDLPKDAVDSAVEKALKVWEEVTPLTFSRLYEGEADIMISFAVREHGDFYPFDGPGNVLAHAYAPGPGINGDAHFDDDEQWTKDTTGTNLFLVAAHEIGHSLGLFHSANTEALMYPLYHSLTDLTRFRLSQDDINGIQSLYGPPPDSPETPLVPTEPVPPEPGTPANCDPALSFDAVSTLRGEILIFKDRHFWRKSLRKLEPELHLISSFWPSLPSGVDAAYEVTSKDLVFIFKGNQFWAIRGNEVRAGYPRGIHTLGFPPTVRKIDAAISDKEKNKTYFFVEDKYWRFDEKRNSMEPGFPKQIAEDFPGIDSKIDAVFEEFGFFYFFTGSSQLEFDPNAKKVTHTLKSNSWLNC

Q: For C[C@@H]1CCCCCCCCC[C@H](O)[C@H](OC(=O)CCC(=O)O)/C=C/C(=O)O1 [BPL 96, 4-(((5R,6S,16R,E)-6-hydroxy-16-methyl-2-oxooxacyclohexadec-3-en-5-yl)oxy)-4-oxobutanoic acid], which MIC [1] is on record?
A: The MIC was 48 µg/mL (≈ 125 µM).

Q: And the MIC (Streptococcus pyogenes)?
A: Its MIC is greater than 96 µg/mL.

Q: What about the MIC (Candida glabrata) of the same compound?
A: The MIC was greater than 96 µg/mL.

Q: What about the MIC (Bacillus subtilis) of the same compound?
A: Its MIC is 48 µg/mL (≈ 125 µM).

Q: And the MIC (C. albicans)?
A: Its MIC is greater than 96 µg/mL.

Q: And the MIC (B. anthracis)?
A: Its MIC is greater than 96 µg/mL.

Q: Which results are given for O=C(O)CCC(=O)O[C@H]1CCCCCCCCC[C@@H](CO)OC(=O)/C=C/[C@H]1O [BPL 98, 4-(((5R,6S,16S,E)-5-hydroxy-16-(hydroxymethyl)-2-oxooxacyclohexadec-3-en-6-yl)oxy)-4-oxobutanoic acid]?
A: MIC [1]: > 100 µg/mL; MIC (Streptococcus pyogenes): > 100 µg/mL; MIC (Candida glabrata): > 100 µg/mL; MIC (Bacillus subtilis): > 100 µg/mL; MIC (C. albicans): > 100 µg/mL; MIC (B. anthracis): > 100 µg/mL; MIC (S. aureus CAIRD116; Staphylococcus aureus, CAIRD116): > 100 µg/mL; antibiotic testing data (MIC), S. aureus CAIRD116 (S. aureus CAIRD116): >250 µM; MIC (S. aureus CAIRD142; Staphylococcus aureus, CAIRD142): > 100 µg/mL; antibiotic testing data (MIC), S. aureus CAIRD142 (S. aureus CAIRD142): >250 µM; MIC (S. aureus CAIRD148; Staphylococcus aureus, CAIRD148): > 100 µg/mL; antibiotic testing data (MIC), S. aureus CAIRD148 (S. aureus CAIRD148): >250 µM; MIC (S. aureus (NE277); Staphylococcus aureus, read-out: antibiotic testing data (MIC), S. aureus (NE277)): > 100 µg/mL; antibiotic testing data (MIC), S. aureus (NE277) (S. aureus (NE277); methicillin-resistant strain): >250 µM; MMP-3 inhibition (MMP-3): weaker inhibitors

Q: With NNC(=O)c1ccncc1 [INH - Isoniazid, Isoniazid, reference compound] as the compound, how does the MIC [2, 5] read?
A: The MIC was greater than 128 µM.

Q: And the MIC [3]?
A: The MIC was 0.5 µM (≈ 0.0686 µg/mL).

Q: Which results are given for CC(=O)NC[C@H]1CN(c2ccc(N3CCOCC3)c(F)c2)C(=O)O1 [LIZ - Linezolidum, Linezolidum, reference compound]?
A: MIC [2, 5]: 2 µM (≈ 0.675 µg/mL); MIC [3]: 2 µM (≈ 0.675 µg/mL)

Q: Which MIC [2, 5] does the source give for Cc1ncc([N+](=O)[O-])n1CCO [MET - Metronidazole, Metronidazole, reference compound] here?
A: The MIC was 449 µM (≈ 76.8 µg/mL).

Q: For COc1c(N2C[C@@H]3CCCN[C@@H]3C2)c(F)cc2c(=O)c(C(=O)O)cn(C3CC3)c12 [MOX - Moxifloxicin, Moxifloxicin, reference compound], which “MIC, MABA” value [4] is on record?
A: Its value is 0.2 µM (≈ 0.0803 µg/mL).

Q: How did the MIC [2, 5] turn out when O=[N+]([O-])c1cn2c(n1)OC[C@@H](OCc1ccc(OC(F)(F)F)cc1)C2 [PA824, reference compound] was run?
A: Its MIC is 7 µM (≈ 2.51 µg/mL).

Q: What about the MIC [3] of the same compound?
A: Its MIC is 0.2 µM (≈ 0.0719 µg/mL).

Q: With CO[C@H]1/C=C/O[C@@]2(C)Oc3c(C)c(O)c4c(O)c(c(/C=N/N5CCN(C)CC5)c(O)c4c3C2=O)NC(=O)/C(C)=C\C=C\[C@H](C)[C@H](O)[C@@H](C)[C@@H](O)[C@@H](C)[C@H](OC(C)=O)[C@@H]1C [RMP - Rifampicin, Rifampicin, reference compound] as the compound, how does the MIC [2] read?
A: Its MIC is 0.4 µM (≈ 0.329 µg/mL).

Q: And the IC50 (Vero cell)?
A: Its IC50 is greater than 100 µg/mL.

Q: What about the IC50 (HepG2) of the same compound?
A: The IC50 was greater than 100 µg/mL.

Q: What about the IC50 (J774) of the same compound?
A: Its IC50 is 95.8 µg/mL (≈ 116 µM).

Q: What about the MIC [3] of the same compound?
A: Its MIC is greater than 0.1 µM.

Q: With COc1nc2ccc(Br)cc2cc1[C@@H](c1ccccc1)[C@@](O)(CCN(C)C)c1cccc2ccccc12 [TMC207, reference compound] as the compound, how does the MIC [2] read?
A: The MIC was 0.1 µM (≈ 0.0556 µg/mL).

Q: What about the IC50 (Vero cell) of the same compound?
A: Its IC50 is greater than 10 µg/mL.

Q: And the IC50 (HepG2)?
A: The IC50 was greater than 10 µg/mL.

Q: And the IC50 (J774)?
A: Its IC50 is greater than 10 µg/mL.

Q: And the MIC [3]?
A: The MIC was greater than 0.1 µM.
